We go through 9 compounds from ChEMBL document CHEMBL1201862, “PubChem BioAssay data set” (2004).

Holding throughout (experiment): NCI tumour cell line growth inhibition, 48 h
The subject of assay [1] is ACHN.
Assay [2] concerns HCT-116.
Assay [3] relates to COLO 205.
In assay [4] the test system is SNB-19.
Assay [5] deals with Malme-3M.
Assay [6] relates to IGROV-1.
For assay [7], the system named is UACC-62.
Assay [8] relates to SF-295.
For assay [9], the system named is OVCAR-4.
Assay [10] concerns OVCAR-8.
Assay [11] deals with NCI-H23.
Assay [12] has as its system KM12.
Assay [13] concerns HOP-92.
Assay [14] relates to UO-31.
For assay [15], the system named is CAKI-1.
In assay [16] the test system is Hs-578T.
For assay [17], the system named is OVCAR-5.
The subject of assay [18] is DU-145.
Assay [19] concerns NCI-H226.
Assay [20] deals with NCI-H522.

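Protocol summary: plate cells (96-well), add compound at 5 concentrations, incubate 48 h, interpolate endpoints linearly. GI50: concentration for 50% inhibition of growth.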 The source made the active and inactive calls. No stated cut-off is given here; in the data, active = GI50 up to about 1.1 µM and inactive = higher.

As for `CSC1=NN(C(C)=O)C(C(OC(C)=O)C(OC(C)=O)C(OC(C)=O)C(COC(C)=O)OC(C)=O)S1` (stereo not given), the GI50 in assay [1], in assay [2], in assay [3], in assay [4], in [5] and in [6] was > 100 µM (inactive) throughout. In addition, the GI50 in [7], in assay [8], in assay [9], in assay [10], in assay [11] and in [12] was > 100 µM (inactive) each time. The GI50 was > 100 µM (inactive) in [13]; 11 µM (inactive) in assay [14]; > 100 µM (inactive) in assay [15]; > 100 µM (inactive) in assay [16]; > 100 µM (inactive) in [17]; > 100 µM (inactive) in [18]. In addition, the GI50 in assay [19] and in assay [20] was > 100 µM (inactive) in each case.
With `Cn1c2ccccc2n2c3ccccc3c(=O)c(C#N)c12`, the GI50 in assay [1] is 2.91 µM (inactive); in [2], 4.19 µM (inactive); in assay [3] it was 9.2 µM (inactive); in assay [4], 16.5 µM (inactive); in assay [5] it was 4.27 µM (inactive); in assay [6], 6.01 µM (inactive). Moreover, the GI50 in [7] was 8.11 µM (inactive); in assay [8] it was 12.6 µM (inactive); in [9] it was > 100 µM (inactive); in assay [10], 3.96 µM (inactive); in assay [11], 8.24 µM (inactive); in assay [12], 12 µM (inactive). The GI50 in assay [13] was 15.3 µM (inactive); in [14] it was 4.14 µM (inactive); in [15], 3.85 µM (inactive); in assay [16], 13.2 µM (inactive); in [17] it was > 70 µM (inactive); in assay [18], 12.6 µM (inactive). For the same compound, the values for the GI50 in assay [19] and in assay [20] were 2.68 µM (inactive) and 4.29 µM (inactive), respectively.
As for `COc1cc(/N=C(\N)N=C(N)N)c2ncccc2c1`, the GI50 in [1] is > 100 µM (inactive); in assay [2], > 100 µM (inactive); in [3] it was 74.8 µM (inactive); in assay [4], 50.4 µM (inactive); in assay [5] it was 44.7 µM (inactive); in [6] it was > 100 µM (inactive). In addition, the GI50 is > 100 µM (inactive) in assay [7]; > 100 µM (inactive) in [8]; > 100 µM (inactive) in assay [9]; > 100 µM (inactive) in assay [10]; 80.7 µM (inactive) in [11]; 45.3 µM (inactive) in [12]. The GI50 in assay [13] is 67 µM (inactive); in [14], > 100 µM (inactive); in assay [15], > 100 µM (inactive); in assay [16], 98.4 µM (inactive); in assay [17], > 100 µM (inactive); in [18] it was > 100 µM (inactive). Besides, the figures for the GI50 in [19] and in [20] were 18.7 µM (inactive) and 72.8 µM (inactive), respectively.
Turning to `CO/C(=N\N=C\c1cccc(C(F)(F)F)c1)c1ccncc1`, the GI50 in assay [1] is 8.13 µM (inactive); in [2], 5.52 µM (inactive); in assay [3], 13.5 µM (inactive); in assay [4], 9.08 µM (inactive); in assay [5], 4.6 µM (inactive); in assay [6], 10 µM (inactive). Also, the GI50 was 4.28 µM (inactive) in [7]; 1.76 µM (inactive) in [8]; 41 µM (inactive) in assay [9]; 9.46 µM (inactive) in [10]; 12 µM (inactive) in assay [11]; 5.19 µM (inactive) in assay [12]. Further, the GI50 is 23.3 µM (inactive) in assay [13]; 4.47 µM (inactive) in [14]; 1.8 µM (inactive) in assay [15]; 5.93 µM (inactive) in [16]; 32.5 µM (inactive) in [17]; 7.85 µM (inactive) in assay [18]. The GI50 in assay [19] is 3.56 µM (inactive); in assay [20] it was 5.45 µM (inactive).
On to `CCOC(=O)c1c(N2CCCC2)ncn(Cc2ccccc2)c1=S`, for which the GI50 in assay [1] is 95.1 µM (inactive); in assay [2], > 100 µM (inactive); in assay [3], > 100 µM (inactive); in assay [4], > 100 µM (inactive); in assay [5] it was > 100 µM (inactive); in assay [6], > 100 µM (inactive). The GI50 in [7] was 63 µM (inactive); in assay [8] it was > 100 µM (inactive); in assay [9] it was 91.4 µM (inactive); in assay [10] it was > 100 µM (inactive); in assay [11], > 100 µM (inactive); in [12] it was > 100 µM (inactive). The GI50 in [13] is 19.5 µM (inactive); in assay [14], 55.8 µM (inactive); in [15] it was 30.6 µM (inactive); in assay [16] it was > 100 µM (inactive); in assay [17] it was > 100 µM (inactive); in assay [18], > 100 µM (inactive). For the same compound, the GI50 in assay [19] and in [20] was > 100 µM (inactive) in each case.
With `O=C(c1c(F)c(F)c(F)c(F)c1F)n1c(O)nc2ccccc21`, the GI50 in assay [1] was 16.1 µM (inactive); in assay [2], 3.49 µM (inactive); in assay [3], 12.9 µM (inactive); in [4] it was 14.9 µM (inactive); in assay [5] it was 14.8 µM (inactive); in [6] it was 11.4 µM (inactive). The GI50 in [7] was 12.1 µM (inactive); in assay [8] it was 16.4 µM (inactive); in assay [9] it was 13.3 µM (inactive); in assay [10] it was 13.2 µM (inactive); in assay [11], 4.88 µM (inactive); in [12] it was 1.54 µM (inactive). Moreover, the GI50 in assay [13] is 2.88 µM (inactive); in [14], 12.3 µM (inactive); in [15], 5.82 µM (inactive); in [16], 17.2 µM (inactive); in assay [17], 15.7 µM (inactive); in assay [18], 15.7 µM (inactive). Further, the GI50 in assay [19] was 17.3 µM (inactive); in assay [20] it was 5.9 µM (inactive).
In the case of `CCCCc1ccc(Nc2nc(N)c3ncn(COCCO)c3n2)cc1`, the GI50 in [1] is 18 µM (inactive); in assay [2], 26.9 µM (inactive); in assay [3], 17.2 µM (inactive); in assay [4] it was 48.9 µM (inactive); in assay [5], 25.7 µM (inactive); in assay [6], 18 µM (inactive). Also, the GI50 in [7] is 16.8 µM (inactive); in [8], 19.8 µM (inactive); in assay [9] it was 32.2 µM (inactive); in assay [10] it was 25.9 µM (inactive); in [11] it was 21.3 µM (inactive); in assay [12], 32.8 µM (inactive). Further, the GI50 is 18.2 µM (inactive) in [13]; 29.9 µM (inactive) in [14]; 38.7 µM (inactive) in [15]; 36.8 µM (inactive) in assay [16]; 38.8 µM (inactive) in assay [17]; 37.7 µM (inactive) in assay [18]. Moreover, the results for the GI50 in assay [19] and in assay [20] were 44.3 µM (inactive) and 26.1 µM (inactive), respectively.
In the case of `C[C@@H]1C[C@H]2CC[C@H](O2)[C@H](C)C(=O)O[C@@H](C)C[C@@H]2CC[C@@H](O2)[C@@H](C)C(=O)O[C@H](C)C[C@H]2CC[C@H](O2)[C@H](C)C(=O)O[C@@H](C)C[C@@H]2CC[C@@H](O2)[C@@H](C)C(=O)O1`, the GI50 in assay [1] was 0.212 µM (active); in [2], 0.315 µM (active); in assay [3], 0.155 µM (active); in assay [4] it was 0.366 µM (active); in assay [5], 0.199 µM (active); in [6] it was 0.34 µM (active). Also, the GI50 is 0.351 µM (active) in [7]; 0.242 µM (active) in assay [8]; 0.136 µM (active) in [9]; 0.295 µM (active) in assay [10]; 0.224 µM (active) in assay [11]; 0.256 µM (active) in assay [12]. In addition, the GI50 in assay [13] is 0.183 µM (active); in [14], 0.374 µM (active); in assay [15], 0.826 µM (active); in assay [16], 0.489 µM (active); in [17], 0.568 µM (active); in [18], 1.43 µM (inactive). The GI50 in [19] is 0.436 µM (active); in [20], 0.211 µM (active).
On to `CC[C@@]1(O)C(=O)OCc2c1cc1n(c2=O)Cc2c-1nc1ccccc1c2CC[Si](C)(C)C` [COSITECAN], for which the GI50 in assay [1] was < 0.01 µM (active); in assay [2], < 0.01 µM (active); in assay [3], < 0.0383 µM (active); in assay [4], < 0.01 µM (active); in assay [5], < 0.01 µM (active); in [6], 0.0149 µM (active). Besides, the GI50 in assay [7] is < 0.01 µM (active); in [8] it was < 0.01 µM (active); in [9] it was 0.0998 µM (active); in assay [10], < 0.01 µM (active); in assay [11], < 0.01 µM (active); in [12], 0.0367 µM (active). Moreover, the GI50 in assay [13] was 0.115 µM (active); in assay [14], < 0.01 µM (active); in assay [15], < 0.01 µM (active); in assay [16], 7.73 µM (inactive); in assay [17] it was 0.0601 µM (active); in [18], < 0.01 µM (active). The GI50 in assay [19] and in assay [20] was < 0.01 µM (active) in each case.
